Assay results: patent US9358249B2, “Use of Pateamine A for the treatment of age-related muscle wasting” (The Regents of the University of California, priority 2008, dated 2016)

Experiments:
[1] = molecular target: T1, eukaryotic initiation factor 4A (eIF4A), yeast (TAP tagged Tif1) (Saccharomyces cerevisiae, UniProt P10081); assay: Proteolysis protection of yeast cell lysate proteins by resveratrol (silver staining, mass spectrometry, western blotting); format: binding
T1 construct: We performed proteolysis on yeast cell lysates that had been incubated with resveratrol or ethanol; TAP; endogenous in cells; host or cells: yeast cells (lysate); strain expressing TAP-tagged Tif1 for the western blot
T1 sequence (P10081 1-395): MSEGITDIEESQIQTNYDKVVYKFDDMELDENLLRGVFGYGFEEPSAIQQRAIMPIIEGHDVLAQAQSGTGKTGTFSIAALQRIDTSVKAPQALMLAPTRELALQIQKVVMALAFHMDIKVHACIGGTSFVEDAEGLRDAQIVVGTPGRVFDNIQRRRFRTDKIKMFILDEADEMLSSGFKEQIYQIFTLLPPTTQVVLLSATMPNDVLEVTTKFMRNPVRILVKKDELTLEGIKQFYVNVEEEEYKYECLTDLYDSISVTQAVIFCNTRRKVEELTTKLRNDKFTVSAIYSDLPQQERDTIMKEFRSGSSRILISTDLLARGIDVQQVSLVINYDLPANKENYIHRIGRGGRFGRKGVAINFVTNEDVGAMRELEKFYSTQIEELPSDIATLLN
Experimental: (§1) FIGS. 1A-1C illustrate the identification of eIF4A as the molecular target of resveratrol. FIG. 1A: Chemical structure of resveratrol. FIG. 1B: Lysate from untreated yeast cells or Hela cell were incubated with resveratrol or vehicle for 1 hr at room temperature, followed by proteolysis, SDS-PAGE, and silver staining. Mass spectrometry identifies the protected protein is eIF4A. FIG. 1C: Western blotting confirms the protection of yeast (TAP-tagged Tifi) eIF4A by resveratrol.
We performed proteolysis on yeast cell lysates that had been incubated with resveratrol or ethanol (vehicle control).

[2] = molecular target: T2, human eIF4A (Homo sapiens, UniProt P60842); assay: Proteolysis protection in human HeLa cell lysate by resveratrol (western blotting); format: binding; settings: 100 μM resveratrol
T2 construct: endogenous in cells; host or cells: HeLa cell lysate
Experimental: as §1

[3] = tested on: eukaryotic translation (rabbit reticulocyte lysate system); assay: In vitro translation assay, rabbit reticulocyte lysate system, firefly luciferase mRNA; format: biochemical; settings: 100 μM resveratrol
Experimental: The rabbit reticulocyte lysate system was treated with different concentration of resveratrol (0, 1, 10, 50, 100, 500 μM), and the translation of firefly luciferase mRNA was measured with Promega luciferase assay.
The in vitor translation assay is performed with the rabbit reticulocyte lysate system. We added different concentrations of resveratrol into the in vitor translation reaction, and used the translation of firefly luciferase mRNA as a readout. […] Translation is reduced by >70% at 100 μM resveratrol, the concentration at which we previously detected eIF4A protection in HeLa cell lysate.

[4] = tested on: cap-dependent (eIF4A-requiring) translation of renilla luciferase; assay: Bicistronic dual-luciferase reporter pcDNA/Ren/HCV/FF in HEK 293 cells, Renilla luciferase; format: cell-based; settings: 0-100 μM, 33 hour after transfection
Experimental: (§2) FIG. 3A: Schematic diagram of the bicistronic dual-luciferase mRNA Ren-HCV-FF. FIG. 3B: Resveratrol inhibits cap-dependent translation initiation of Renilla luciferase but not eIF4A-independent translation of firefly luciferase. HEK 293 cells transfected with plasmid pcDNA/REN/HCV/FF are treated with different concentration of resveratrol (0, 0.1, 1, 10, 50, 100 μM). Translation of reporter genes was measured 33 hour after transfection using the Dual-Glo luciferase assay (Promega) with an Analyst HT plate reader (Molecular Devices).
(§3) One such illustrative assay is shown in Example 1.

[5] = tested on: HCV IRES mediated (eIF4A-independent) translation of firefly luciferase; assay: Bicistronic dual-luciferase reporter pcDNA/Ren/HCV/FF in HEK 293 cells, firefly luciferase; format: cell-based; settings: 0-100 μM, 33 hour after transfection
Experimental: as §2, §3

T2 sequence (P60842 whole entry): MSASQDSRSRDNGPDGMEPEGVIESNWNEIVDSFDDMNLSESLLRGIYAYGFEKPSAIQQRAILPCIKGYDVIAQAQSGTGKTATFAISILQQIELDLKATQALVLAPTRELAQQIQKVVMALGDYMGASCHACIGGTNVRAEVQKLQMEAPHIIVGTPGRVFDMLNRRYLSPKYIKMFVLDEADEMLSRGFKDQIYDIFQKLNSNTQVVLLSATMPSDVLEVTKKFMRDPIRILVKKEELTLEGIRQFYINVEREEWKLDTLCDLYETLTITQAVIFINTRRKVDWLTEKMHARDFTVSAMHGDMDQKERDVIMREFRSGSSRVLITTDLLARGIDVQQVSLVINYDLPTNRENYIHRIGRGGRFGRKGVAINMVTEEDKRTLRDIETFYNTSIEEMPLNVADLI

`Oc1ccc(C=Cc2cc(O)cc(O)c2)cc1` [resveratrol] was tested, and the “eIF4A in protected bands (15 and 25 kDa) after proteolysis, mass spectrometry” value ([1]; yeast cell lysate incubated with resveratrol vs ethanol vehicle) was “enriched in the resveratrol-treated sample”, the “protection of yeast (TAP tagged Tif1) eIF4A, western blotting” value ([1]; yeast lysate, proteolysis) was “further confirmed by western blotting” and the “protected band after proteolysis, confirmed as human eIF4A by western blotting” value [2] was “protected band of similar size was detected”. The “Translation reduced (firefly luciferase signal)” value [3] was > 70%, the “expression of renilla luciferase (cap-dependent)” value [4] was “inhibited in a dose-dependent manner” and the “expression of firefly luciferase (HCV IRES)” value [5] was “unaffected”.
